For 3 compounds, Ki and ED50 results are on record in ChEMBL document CHEMBL1142715, “Discovery of new tetracyclic tetrahydrofuran derivatives as potential broad-spectrum psychotropic agents” (J Med Chem, 2005).

Structures are written as SMILES.

In test [1] the target is T1, Alpha-2C adrenergic receptor (Homo sapiens, UniProt P18825).
T1 sequence (P18825 whole entry): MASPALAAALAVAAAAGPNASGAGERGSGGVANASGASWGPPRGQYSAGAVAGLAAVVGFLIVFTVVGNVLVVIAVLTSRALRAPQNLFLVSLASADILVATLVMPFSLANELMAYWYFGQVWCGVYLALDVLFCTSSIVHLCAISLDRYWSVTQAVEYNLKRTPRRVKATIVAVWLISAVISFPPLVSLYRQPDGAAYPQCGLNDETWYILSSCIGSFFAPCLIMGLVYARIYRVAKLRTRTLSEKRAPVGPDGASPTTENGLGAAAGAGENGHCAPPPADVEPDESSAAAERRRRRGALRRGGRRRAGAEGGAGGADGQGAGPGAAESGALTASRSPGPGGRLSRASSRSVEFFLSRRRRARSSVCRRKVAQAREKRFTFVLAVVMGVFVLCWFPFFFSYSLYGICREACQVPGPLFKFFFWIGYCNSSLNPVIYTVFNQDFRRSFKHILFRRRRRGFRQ
As to the kind of experiment: Inhibition of [3H]rauwolscine binding to Alpha-2C adrenergic receptor.

Test [2] concerns the target Norepinephrine transporter (Rattus norvegicus, UniProt Q9WTR4). As to the kind of experiment: Inhibition of [3H]nisoxetine binding to rat Norepinephrine transporter.
Test [3] concerns the target 5-hydroxytryptamine receptor 2A (Homo sapiens, UniProt P28223).
Description: Inhibition of [125I]R91150 binding to human 5-hydroxytryptamine 2A receptor
Another test concerns the target Histamine H1 receptor (Homo sapiens, UniProt P35367).
Test [4] has as its target 5-hydroxytryptamine receptor 7 (Homo sapiens, UniProt P34969).
Description: Inhibition of [3H]5-HT binding to human 5-hydroxytryptamine 7 receptor
Test [5] addresses T2, Alpha-2A adrenergic receptor (Homo sapiens, UniProt P08913).
T2 sequence (P08913 whole entry): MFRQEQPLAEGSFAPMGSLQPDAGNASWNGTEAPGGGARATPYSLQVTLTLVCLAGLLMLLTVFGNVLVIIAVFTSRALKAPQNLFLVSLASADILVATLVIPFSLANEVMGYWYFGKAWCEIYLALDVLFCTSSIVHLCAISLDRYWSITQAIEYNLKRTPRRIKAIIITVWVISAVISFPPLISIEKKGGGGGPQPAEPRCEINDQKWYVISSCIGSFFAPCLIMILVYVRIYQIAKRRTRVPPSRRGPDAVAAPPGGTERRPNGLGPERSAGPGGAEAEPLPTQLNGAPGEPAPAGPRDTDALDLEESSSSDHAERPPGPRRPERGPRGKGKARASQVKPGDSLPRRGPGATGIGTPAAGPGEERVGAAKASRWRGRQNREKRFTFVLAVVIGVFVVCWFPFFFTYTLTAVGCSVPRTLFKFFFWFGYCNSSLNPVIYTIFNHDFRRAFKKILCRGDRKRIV
Description: Inhibition of [3H]rauwolscine binding to Alpha-2A adrenergic receptor

Test [6] concerns the target T3, 5-hydroxytryptamine receptor 2C (Homo sapiens, UniProt P28335).
T3 sequence (P28335 whole entry): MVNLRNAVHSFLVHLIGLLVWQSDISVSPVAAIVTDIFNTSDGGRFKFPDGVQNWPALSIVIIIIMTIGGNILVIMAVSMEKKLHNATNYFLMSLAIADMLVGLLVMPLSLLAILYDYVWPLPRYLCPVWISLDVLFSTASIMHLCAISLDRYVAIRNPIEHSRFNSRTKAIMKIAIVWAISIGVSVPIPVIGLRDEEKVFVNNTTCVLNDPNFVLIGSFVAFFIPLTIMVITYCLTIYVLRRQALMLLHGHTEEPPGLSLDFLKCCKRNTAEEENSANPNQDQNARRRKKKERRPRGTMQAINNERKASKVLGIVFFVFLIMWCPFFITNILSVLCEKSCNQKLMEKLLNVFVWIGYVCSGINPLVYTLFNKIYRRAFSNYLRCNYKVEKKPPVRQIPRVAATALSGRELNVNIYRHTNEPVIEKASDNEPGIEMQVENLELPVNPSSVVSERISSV
Description: Inhibition of [3H]mesulergine binding to human 5-hydroxytryptamine 2C receptor

In test [7] the target is T4, Adrenergic receptor alpha-1 (Rattus norvegicus, UniProt P15823+P23944+P43140).
T4 sequence (P15823 whole entry): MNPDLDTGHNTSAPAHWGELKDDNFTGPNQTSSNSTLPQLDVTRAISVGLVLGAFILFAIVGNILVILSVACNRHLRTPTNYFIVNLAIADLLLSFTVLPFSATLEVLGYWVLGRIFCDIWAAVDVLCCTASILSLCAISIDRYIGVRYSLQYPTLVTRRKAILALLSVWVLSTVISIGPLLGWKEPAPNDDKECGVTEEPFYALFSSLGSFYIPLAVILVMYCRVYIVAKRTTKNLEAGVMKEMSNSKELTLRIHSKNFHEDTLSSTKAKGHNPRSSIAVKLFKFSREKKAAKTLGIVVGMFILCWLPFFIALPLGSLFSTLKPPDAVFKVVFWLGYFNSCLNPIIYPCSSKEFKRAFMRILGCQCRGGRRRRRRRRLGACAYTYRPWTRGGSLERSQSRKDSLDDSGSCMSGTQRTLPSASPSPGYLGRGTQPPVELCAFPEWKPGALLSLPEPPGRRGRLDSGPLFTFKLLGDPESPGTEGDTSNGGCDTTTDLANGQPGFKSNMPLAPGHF
T4 sequence (P23944 whole entry): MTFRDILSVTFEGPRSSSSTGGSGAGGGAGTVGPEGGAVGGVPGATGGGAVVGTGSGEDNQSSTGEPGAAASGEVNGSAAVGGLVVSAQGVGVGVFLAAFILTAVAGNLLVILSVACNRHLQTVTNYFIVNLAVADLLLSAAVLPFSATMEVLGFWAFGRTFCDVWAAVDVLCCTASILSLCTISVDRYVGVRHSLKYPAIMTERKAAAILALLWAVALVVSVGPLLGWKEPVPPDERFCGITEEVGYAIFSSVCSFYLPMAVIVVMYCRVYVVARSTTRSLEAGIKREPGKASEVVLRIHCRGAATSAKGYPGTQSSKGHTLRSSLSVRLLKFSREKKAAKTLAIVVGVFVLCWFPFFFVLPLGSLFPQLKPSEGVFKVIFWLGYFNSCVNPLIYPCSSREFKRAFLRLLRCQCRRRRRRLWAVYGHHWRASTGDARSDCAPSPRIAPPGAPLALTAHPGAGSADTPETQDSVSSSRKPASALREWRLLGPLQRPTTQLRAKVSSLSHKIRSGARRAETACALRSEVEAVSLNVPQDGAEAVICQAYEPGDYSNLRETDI
T4 sequence (P43140 whole entry): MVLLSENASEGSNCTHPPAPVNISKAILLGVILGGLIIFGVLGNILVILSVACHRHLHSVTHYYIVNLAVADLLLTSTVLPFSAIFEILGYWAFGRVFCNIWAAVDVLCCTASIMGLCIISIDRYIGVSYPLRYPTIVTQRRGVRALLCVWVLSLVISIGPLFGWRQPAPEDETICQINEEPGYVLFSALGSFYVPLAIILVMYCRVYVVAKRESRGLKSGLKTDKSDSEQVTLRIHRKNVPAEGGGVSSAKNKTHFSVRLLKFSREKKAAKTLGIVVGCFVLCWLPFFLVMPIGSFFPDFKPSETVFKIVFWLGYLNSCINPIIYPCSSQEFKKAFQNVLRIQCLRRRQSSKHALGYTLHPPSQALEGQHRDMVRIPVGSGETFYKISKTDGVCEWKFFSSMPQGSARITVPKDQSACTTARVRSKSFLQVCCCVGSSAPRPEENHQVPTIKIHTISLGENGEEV
Description: Inhibition of [3H]prazosin binding to rat Alpha-1 adrenergic receptor

In test [8] the test system is Rattus norvegicus. Kind of test: In vivo effective dose to inhibit tryptamine-induced bilateral convulsions in rats. In kind it is functional.
Test [9] deals with Rattus norvegicus. As to the kind of experiment: In vivo effective dose for reversal of tryptamine-induced backward locomotion in rats. In kind it is functional.
Another test has as its system Mus musculus. As to the kind of experiment: In vivo effective dose for reversal of RO-4-1284 induced hypothermia in mouse. In kind it is functional.
The species named for test [10] is Rattus norvegicus. Kind of test: Effective dose for antagonistic activity against m-chlorophenyl-piperazine induced anxiety in rats. The test is classed as functional.
In test [11] the test system is Rattus norvegicus. As to the kind of experiment: In vivo effective dose to inhibit apomorphine induced agitation in rats upon subcutaneous administration. The test is classed as functional. The conditions noted are these: sc.
For test [12], the system named is Rattus norvegicus. As to the kind of experiment: In vivo effective dose for reversal of tryptamine-induced cyanosis in rats. The test is classed as functional.
The target in another test is D(1A) dopamine receptor (Rattus norvegicus, UniProt P18901).
Chain of D(1A) dopamine receptor (P18901 whole entry): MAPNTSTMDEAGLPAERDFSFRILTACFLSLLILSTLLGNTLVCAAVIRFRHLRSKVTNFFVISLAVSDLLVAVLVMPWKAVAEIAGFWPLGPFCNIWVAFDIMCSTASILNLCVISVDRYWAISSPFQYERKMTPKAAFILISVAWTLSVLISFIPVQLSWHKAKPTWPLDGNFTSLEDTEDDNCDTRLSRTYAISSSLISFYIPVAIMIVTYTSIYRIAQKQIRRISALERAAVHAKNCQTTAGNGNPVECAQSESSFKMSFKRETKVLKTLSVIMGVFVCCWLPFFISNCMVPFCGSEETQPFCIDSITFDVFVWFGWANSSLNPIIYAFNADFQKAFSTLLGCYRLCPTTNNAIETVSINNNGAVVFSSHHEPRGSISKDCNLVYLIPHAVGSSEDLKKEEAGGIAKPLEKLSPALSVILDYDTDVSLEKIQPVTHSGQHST

Chain of Norepinephrine transporter (Q9WTR4 whole entry): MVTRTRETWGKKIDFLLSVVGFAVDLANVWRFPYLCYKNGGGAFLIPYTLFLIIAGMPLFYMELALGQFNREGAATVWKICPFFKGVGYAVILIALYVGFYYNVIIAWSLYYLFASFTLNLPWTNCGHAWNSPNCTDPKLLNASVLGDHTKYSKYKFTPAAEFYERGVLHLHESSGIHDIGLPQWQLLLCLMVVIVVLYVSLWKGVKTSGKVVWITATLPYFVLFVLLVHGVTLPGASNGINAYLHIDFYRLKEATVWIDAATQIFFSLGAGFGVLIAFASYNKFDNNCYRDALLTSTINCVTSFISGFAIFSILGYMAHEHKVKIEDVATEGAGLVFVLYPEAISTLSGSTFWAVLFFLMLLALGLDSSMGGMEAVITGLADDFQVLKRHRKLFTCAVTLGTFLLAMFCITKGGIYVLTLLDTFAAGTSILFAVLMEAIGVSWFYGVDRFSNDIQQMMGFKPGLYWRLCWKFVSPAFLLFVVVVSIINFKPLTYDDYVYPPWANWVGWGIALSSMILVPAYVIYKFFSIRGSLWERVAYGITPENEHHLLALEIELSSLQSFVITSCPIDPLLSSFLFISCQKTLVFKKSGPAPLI
Chain of 5-hydroxytryptamine receptor 2A (P28223 whole entry): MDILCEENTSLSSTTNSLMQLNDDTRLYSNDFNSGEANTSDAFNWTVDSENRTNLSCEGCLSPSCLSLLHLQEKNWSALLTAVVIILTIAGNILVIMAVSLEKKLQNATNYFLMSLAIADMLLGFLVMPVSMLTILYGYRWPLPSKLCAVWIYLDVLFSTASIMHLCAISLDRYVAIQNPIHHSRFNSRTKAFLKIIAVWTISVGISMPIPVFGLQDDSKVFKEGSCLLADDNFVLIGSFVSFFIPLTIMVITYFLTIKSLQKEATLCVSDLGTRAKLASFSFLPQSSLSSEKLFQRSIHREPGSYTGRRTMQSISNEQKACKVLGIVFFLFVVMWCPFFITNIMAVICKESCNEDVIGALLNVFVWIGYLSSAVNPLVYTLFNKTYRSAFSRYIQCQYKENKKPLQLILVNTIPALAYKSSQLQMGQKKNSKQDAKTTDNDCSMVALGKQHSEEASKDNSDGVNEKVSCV
Chain of Histamine H1 receptor (P35367 whole entry): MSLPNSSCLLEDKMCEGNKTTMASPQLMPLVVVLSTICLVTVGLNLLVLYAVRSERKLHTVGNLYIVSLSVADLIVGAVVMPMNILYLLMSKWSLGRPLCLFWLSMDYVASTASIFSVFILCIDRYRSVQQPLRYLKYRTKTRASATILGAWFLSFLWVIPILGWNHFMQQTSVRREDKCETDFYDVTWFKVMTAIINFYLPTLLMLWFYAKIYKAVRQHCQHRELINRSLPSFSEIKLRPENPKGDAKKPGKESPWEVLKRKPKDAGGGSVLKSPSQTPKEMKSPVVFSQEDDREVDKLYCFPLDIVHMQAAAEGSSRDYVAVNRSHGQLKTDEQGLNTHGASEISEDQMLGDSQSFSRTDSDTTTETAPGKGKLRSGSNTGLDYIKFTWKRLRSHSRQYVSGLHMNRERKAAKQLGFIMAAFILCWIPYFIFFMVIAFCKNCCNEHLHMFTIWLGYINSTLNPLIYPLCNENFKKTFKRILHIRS
Chain of 5-hydroxytryptamine receptor 7 (P34969 whole entry): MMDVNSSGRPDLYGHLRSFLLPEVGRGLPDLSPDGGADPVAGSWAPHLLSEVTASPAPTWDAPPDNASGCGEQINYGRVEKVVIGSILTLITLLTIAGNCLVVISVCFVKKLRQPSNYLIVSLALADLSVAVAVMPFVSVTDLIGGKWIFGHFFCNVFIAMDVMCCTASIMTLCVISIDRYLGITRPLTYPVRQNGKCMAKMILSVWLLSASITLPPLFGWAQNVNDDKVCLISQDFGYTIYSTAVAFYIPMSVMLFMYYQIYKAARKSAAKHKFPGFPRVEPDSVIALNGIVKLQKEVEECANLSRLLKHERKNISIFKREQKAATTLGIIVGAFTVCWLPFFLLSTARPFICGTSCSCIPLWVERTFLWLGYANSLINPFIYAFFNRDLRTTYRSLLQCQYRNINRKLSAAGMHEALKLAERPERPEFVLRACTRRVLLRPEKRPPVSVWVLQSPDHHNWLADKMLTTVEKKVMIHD
Description for D(1A) dopamine receptor: Inhibition of [3H]SCH-23390 binding to rat Dopamine receptor D1
Description for Histamine H1 receptor: Inhibition of [3H]pyrilamine binding to human Histamine H1 receptor

`CN(C)C[C@@H]1CC2c3ccccc3Oc3ccc(F)cc3[C@H]2O1` (some centres not stated): the Ki is 0.219 µM in test [1]; 0.02 µM in test [2]; above 5.45 µM in test [3]; 0.033 µM at Histamine H1 receptor; 0.057 µM in test [4]; 0.251 µM in test [5]. For the same compound, the Ki in test [6] is 0.0076 µM; in test [7], 0.338 µM.

For the compound `CN(C)C[C@H]1CC2c3ccccc3Oc3ccc(F)cc3[C@H]2O1` (some centres not stated), the inhibitory constant (Ki) in test [1] is 0.2 µM; in [2], 0.0036 µM; in test [3], above 5.45 µM; at Histamine H1 receptor it was 0.0075 µM; in test [4] it was 0.08 µM; in [5], 0.269 µM. Moreover, the inhibitory constant (Ki) in test [6] was found to be 0.0043 µM; in test [7], 0.071 µM.

For `CN1CCN2c3ncccc3Cc3ccccc3C2C1` (configuration not stated) [MIRTAZAPINE], the Ki in test [1] is 0.018 µM; in test [2] it was 1.64 µM; in test [6], 0.039 µM; at D(1A) dopamine receptor, 4.17 µM; in test [7], 0.608 µM. In addition, the ED50 with Rattus norvegicus [8] is 0.32 mg/kg; with Rattus norvegicus [9], 0.5 mg/kg; with Mus musculus, above 40 mg/kg; in the test filed under Rattus norvegicus [10], 0.1 mg/kg; in the test on Rattus norvegicus [11], above 10 mg/kg; with Rattus norvegicus [12] it was 0.8 mg/kg.
